Data on two compounds can be found in paper PMC12501607, “Novel prolyl endopeptidase inhibitor from Myricaria germanica alleviates steatohepatitis” (RSC Advances, 2025).

The target in test [1] is T1, Prolyl endopeptidase (PREP) (Homo sapiens, UniProt P48147).
T1 sequence (P48147 1-710): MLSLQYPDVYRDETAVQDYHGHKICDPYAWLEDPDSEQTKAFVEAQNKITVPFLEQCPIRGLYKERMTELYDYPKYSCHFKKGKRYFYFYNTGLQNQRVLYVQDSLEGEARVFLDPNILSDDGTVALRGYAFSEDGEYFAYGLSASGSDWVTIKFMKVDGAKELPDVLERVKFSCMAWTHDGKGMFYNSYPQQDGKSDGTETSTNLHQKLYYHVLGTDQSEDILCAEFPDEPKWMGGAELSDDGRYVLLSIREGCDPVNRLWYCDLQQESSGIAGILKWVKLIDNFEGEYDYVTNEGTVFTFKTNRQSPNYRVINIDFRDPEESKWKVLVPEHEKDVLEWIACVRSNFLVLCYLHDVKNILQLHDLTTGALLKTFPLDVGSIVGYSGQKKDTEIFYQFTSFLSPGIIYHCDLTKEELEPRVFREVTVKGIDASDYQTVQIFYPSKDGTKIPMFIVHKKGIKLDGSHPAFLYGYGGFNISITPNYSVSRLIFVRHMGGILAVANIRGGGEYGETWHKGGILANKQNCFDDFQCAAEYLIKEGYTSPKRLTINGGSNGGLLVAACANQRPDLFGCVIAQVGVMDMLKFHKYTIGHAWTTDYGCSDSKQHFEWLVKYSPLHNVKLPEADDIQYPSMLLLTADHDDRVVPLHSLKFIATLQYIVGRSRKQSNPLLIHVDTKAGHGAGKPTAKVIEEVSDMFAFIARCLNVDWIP
The experiment in a line: Chromogenic enzyme assay (Z-Gly-Pro-pNA, […] nm) with recombinant human PREP; Lineweaver-Burk kinetics. Format: biochemical.

Test [2] deals with T1, Prolyl endopeptidase (PREP). Nature of the test: Chromogenic enzyme assay (Z-Gly-Pro-pNA, […] nm) with recombinant human PREP. Format: biochemical.

The IC50 is the concentration that gives 50% inhibition.

As to `CCCCCCCCCCCCCCCCCCCCCCCCCC1CCCCC1O` (racemic) [PREPi, (±)-2-pentacosylcyclohexanol], in test [1], the IC50 is 20 ± 1.6 µM. For the compound `COc1cc(C(=O)O)cc(OC)c1O` [Fr-2, syringic acid], the IC50 in test [2] is 155 ± 1.8 µM.
